Measurements from patent US20090318431A1, “BENZOXAZINONE AND BENZOXAZEPINONE OXAZOLIDINONES AS ANTIBACTERIAL AGENTS” (Pfizer Inc., priority 2006, published 2009).
Converted amounts (≈) assume the structure as drawn.

Tests used:
Format in all cases: cell-based
S. aureus UC-76 SA-1 = assay: in vitro antibacterial activity (MIC), S. aureus; details: Staphylococcus aureus, UC76, strain UC-76 SA-1, lowest concentration preventing macroscopically visible growth
From the text: (§1) The in vitro antibacterial activity of the compounds of the present invention may be assessed by following procedures recommended in (1) National Committee for Clinical Laboratory Standards (January 2003), Methods for dilution antimicrobial tests for bacteria that grow aerobically, Approved Standard (6th ed), M7-A6, NCCLS, Wayne, Pa.; (2) National Committee for Clinical Laboratory Standards (March 2001), Methods for antimicrobial susceptibility testing of anaerobic bacteria, Approved Standard (5th ed), M11-A4, NCCLS, Wayne, Pa.; (3) National Committee for Clinical Laboratory Standards (Jan. 2003), MIC testing supplemental tables, M100-S13 (for use with M7-A6), NCCLS, Wayne, Pa.; and (4) Murray P R, Baron E J, Jorgensen J H, et al. Manual of Clinical Microbiology (8th ed) Washington, D.C.: American Society for Microbiology Press, 2003. The antibacterial activity can be presented in the form of MIC value. The MIC value is the lowest concentration of drug, which prevented macroscopically visible growth under the conditions of the test.

S. pneumoniae SV1 SP-3 = assay: in vitro antibacterial activity (MIC), S. pneumoniae; details: Streptococcus pneumoniae, SV1SP3, strain SV1 SP-3, lowest concentration preventing macroscopically visible growth
From the text: as §1

E. faecalis MGH-2 EF 1-1 = assay: in vitro antibacterial activity (MIC), E. faecalis; details: Enterococcus faecalis, MGH2EF11, strain MGH-2 EF 1-1, lowest concentration preventing macroscopically visible growth
From the text: as §1

Question: How did the MIC (S. aureus UC-76 SA-1) turn out when `CN1C(=O)OCc2cc(N3C[C@H](C(N)=O)OC3=O)cc(F)c21` [Example 8, (R)-3-(8-fluoro-1-methyl-2-oxo-2,4-dihydro-1H-benzo[d][1,3]oxazin-6-yl)-2-oxooxazolidine-5-carboxamide] was run?
Answer: Its MIC is 8 µg/mL (≈ 25.9 µM).

Question: What about the MIC (S. pneumoniae SV1 SP-3) of the same compound?
Answer: Its MIC is 16 µg/mL (≈ 51.7 µM).

Question: And the MIC (E. faecalis MGH-2 EF 1-1)?
Answer: Its MIC is 8 µg/mL (≈ 25.9 µM).

Question: What does the source list for `CC(=O)NC[C@H]1CN(c2ccc3c(c2)CCOC(=O)N3C)C(=O)O1` [Example 20, N-{[(5S)-3-(1-methyl-2-oxo-1,2,4,5-tetrahydro-3,1-benzoxazepin-7-yl)-2-oxo-1,3-oxazolidin-5-yl]methyl}acetamide]?
Answer: MIC (S. aureus UC-76 SA-1): 8 µg/mL (≈ 24 µM); MIC (S. pneumoniae SV1 SP-3): 4 µg/mL (≈ 12 µM); MIC (E. faecalis MGH-2 EF 1-1): 8 µg/mL (≈ 24 µM)

Question: Which MIC (S. aureus UC-76 SA-1) does the source give for `CCC(=O)NC[C@H]1CN(c2ccc3c(c2)CCOC(=O)N3C)C(=O)O1` [Example 21, N-{[(5S)-3-(1-methyl-2-oxo-1,2,4,5-tetrahydro-3,1-benzoxazepin-7-yl)-2-oxo-1,3-oxazolidin-5-yl]methyl}propanamide] here?
Answer: Its MIC is 8 µg/mL (≈ 23 µM).

Question: What about the MIC (S. pneumoniae SV1 SP-3) of the same compound?
Answer: Its MIC is 8 µg/mL (≈ 23 µM).

Question: And the MIC (E. faecalis MGH-2 EF 1-1)?
Answer: Its MIC is 8 µg/mL (≈ 23 µM).

Question: How did the MIC (S. aureus UC-76 SA-1) turn out when `CCC(=O)NC[C@H]1CN(c2cc(F)c3c(c2)COC(=O)N3C)C(=O)O1` [Example 11, (S)—N-((3-(8-fluoro-1-methyl-2-oxo-2,4-dihydro-1H-benzo[d][1,3]oxazin-6-yl)-2-oxooxazolidin-5-yl)methyl)propionamide] was run?
Answer: Its MIC is 4 µg/mL (≈ 11.4 µM).

Question: What about the MIC (S. pneumoniae SV1 SP-3) of the same compound?
Answer: Its MIC is 4 µg/mL (≈ 11.4 µM).

Question: What about the MIC (E. faecalis MGH-2 EF 1-1) of the same compound?
Answer: The MIC was 4 µg/mL (≈ 11.4 µM).

Question: `CCC(=O)NC[C@H]1CN(c2cc(F)c3c(c2)CCOC(=O)N3C)C(=O)O1` [Example 16, N-{[(5S)-3-(9-fluoro-1-methyl-2-oxo-1,2,4,5-tetrahydro-3,1-benzoxazepin-7-yl)-2-oxo-1,3-oxazolidin-5-yl]methyl}propanamide] was tested. Which MIC (S. aureus UC-76 SA-1) did it give?
Answer: Its MIC is 16 µg/mL (≈ 43.8 µM).

Question: And the MIC (S. pneumoniae SV1 SP-3)?
Answer: The MIC was 8 µg/mL (≈ 21.9 µM).

Question: And the MIC (E. faecalis MGH-2 EF 1-1)?
Answer: Its MIC is 16 µg/mL (≈ 43.8 µM).

Question: What does the source list for `COC(=O)NC[C@H]1CN(c2cc(F)c3c(c2)COC(=O)N3C)C(=O)O1` [Example 12, (S)-methyl (3-(8-fluoro-1-methyl-2-oxo-2,4-dihydro-1H-benzo[d][1,3]oxazin-6-yl)-2-oxooxazolidin-5-yl)methylcarbamate]?
Answer: MIC (S. aureus UC-76 SA-1): 4 µg/mL (≈ 11.3 µM); MIC (S. pneumoniae SV1 SP-3): 4 µg/mL (≈ 11.3 µM); MIC (E. faecalis MGH-2 EF 1-1): 8 µg/mL (≈ 22.6 µM)

Question: For `CNC(=O)[C@H]1CN(c2ccc3c(c2)CCOC(=O)N3C)C(=O)O1` [Example 19, (5R)—N-methyl-3-(1-methyl-2-oxo-1,2,4,5-tetrahydro-3,1-benzoxazepin-7-yl)-2-oxo-1,3-oxazolidine-5-carboxamide], which MIC (S. aureus UC-76 SA-1) is on record?
Answer: The MIC was 16 µg/mL (≈ 50.1 µM).

Question: And the MIC (S. pneumoniae SV1 SP-3)?
Answer: The MIC was 32 µg/mL (≈ 100 µM).

Question: And the MIC (E. faecalis MGH-2 EF 1-1)?
Answer: Its MIC is 32 µg/mL (≈ 100 µM).

Question: What does the source list for `CC(=O)NC[C@H]1CN(c2cc(F)c3c(c2)COC(=O)N3C)C(=O)O1` [Example 10, (S)—N-((3-(8-fluoro-1-methyl-2-oxo-2,4-dihydro-1H-benzo[d][1,3]oxazin-6-yl)-2-oxooxazolidin-5-yl)methyl)acetamide]?
Answer: MIC (S. aureus UC-76 SA-1): 2 µg/mL (≈ 5.93 µM); MIC (S. pneumoniae SV1 SP-3): 2 µg/mL (≈ 5.93 µM); MIC (E. faecalis MGH-2 EF 1-1): 4 µg/mL (≈ 11.9 µM)

Question: How did the MIC (S. aureus UC-76 SA-1) turn out when `CN1C(=O)OCc2cc(N3C[C@H](CNC(=O)OCF)OC3=O)ccc21` [Example 6, (S)-Fluoromethyl (3-(1-methyl-2-oxo-2,4-dihydro-1H-benzo[d][1,3]oxazin-6-yl)-2-oxooxazolidin-5-yl)methylcarbamate] was run?
Answer: The MIC was 8 µg/mL (≈ 22.6 µM).

Question: What about the MIC (S. pneumoniae SV1 SP-3) of the same compound?
Answer: The MIC was 2 µg/mL (≈ 5.66 µM).

Question: What about the MIC (E. faecalis MGH-2 EF 1-1) of the same compound?
Answer: Its MIC is 8 µg/mL (≈ 22.6 µM).

Question: What does the source list for `CNC(=O)[C@H]1CN(c2ccc3c(c2)COC(=O)N3C)C(=O)O1` [Example 5, (R)—N-methyl-3-(1-methyl-2-oxo-2,4-dihydro-1H-benzo[d][1,3]oxazin-6-yl)-2-oxooxazolidine-5-carboxamide]?
Answer: MIC (S. aureus UC-76 SA-1): 4 µg/mL (≈ 13.1 µM); MIC (S. pneumoniae SV1 SP-3): 4 µg/mL (≈ 13.1 µM); MIC (E. faecalis MGH-2 EF 1-1): 16 µg/mL (≈ 52.4 µM)

Question: Which results are given for `CC(=O)NC[C@H]1CN(c2ccc3c(c2)COC(=O)N3C)C(=O)O1` [Example 1, (S)—N-((3-(1-methyl-2-oxo-2,4-dihydro-1H-benzo[d][1,3]oxazin-6-yl)-2-oxooxazolidin-5-yl)methyl)acetamide]?
Answer: MIC (S. aureus UC-76 SA-1): 4 µg/mL (≈ 12.5 µM); MIC (S. pneumoniae SV1 SP-3): 2 µg/mL (≈ 6.26 µM); MIC (E. faecalis MGH-2 EF 1-1): 4 µg/mL (≈ 12.5 µM)

Question: For `COC(=O)NC[C@H]1CN(c2cc(F)c3c(c2)CCOC(=O)N3C)C(=O)O1` [Example 17, methyl [(5S)-3-(9-fluoro-1-methyl-2-oxo-1,2,4,5-tetrahydro-3,1-benzoxazepin-7-yl)-2-oxo-1,3-oxazolidin-5-yl]methylcarbamate], which MIC (S. aureus UC-76 SA-1) is on record?
Answer: Its MIC is 16 µg/mL (≈ 43.6 µM).

Question: What about the MIC (S. pneumoniae SV1 SP-3) of the same compound?
Answer: Its MIC is 8 µg/mL (≈ 21.8 µM).

Question: And the MIC (E. faecalis MGH-2 EF 1-1)?
Answer: Its MIC is 16 µg/mL (≈ 43.6 µM).

Question: With `CN1C(=O)OCc2cc(N3C[C@H](C(N)=O)OC3=O)ccc21` [Example 4, (R)-3-(1-methyl-2-oxo-2,4-dihydro-1H-benzo[d][1,3]oxazin-6-yl)-2-oxooxazolidine-5-carboxamide] as the compound, how does the MIC (S. aureus UC-76 SA-1) read?
Answer: The MIC was 4 µg/mL (≈ 13.7 µM).

Question: And the MIC (S. pneumoniae SV1 SP-3)?
Answer: The MIC was 4 µg/mL (≈ 13.7 µM).

Question: What about the MIC (E. faecalis MGH-2 EF 1-1) of the same compound?
Answer: Its MIC is 16 µg/mL (≈ 54.9 µM).

Question: With `COC(=O)NC[C@H]1CN(c2ccc3c(c2)CCOC(=O)N3C)C(=O)O1` [Example 22, methyl [(5S)-3-(1-methyl-2-oxo-1,2,4,5-tetrahydro-3,1-benzoxazepin-7-yl)-2-oxo-1,3-oxazolidin-5-yl]methylcarbamate] as the compound, how does the MIC (S. aureus UC-76 SA-1) read?
Answer: Its MIC is 8 µg/mL (≈ 22.9 µM).

Question: What about the MIC (S. pneumoniae SV1 SP-3) of the same compound?
Answer: The MIC was 8 µg/mL (≈ 22.9 µM).

Question: And the MIC (E. faecalis MGH-2 EF 1-1)?
Answer: Its MIC is 8 µg/mL (≈ 22.9 µM).

Question: Which results are given for `CNC(=O)[C@H]1CN(c2cc(F)c3c(c2)COC(=O)N3C)C(=O)O1` [Example 9, (R)-3-(8-fluoro-1-methyl-2-oxo-2,4-dihydro-1H-benzo[d][1,3]oxazin-6-yl)-N-methyl-2-oxooxazolidine-5-carboxamide]?
Answer: MIC (S. aureus UC-76 SA-1): 8 µg/mL (≈ 24.7 µM); MIC (S. pneumoniae SV1 SP-3): 8 µg/mL (≈ 24.7 µM); MIC (E. faecalis MGH-2 EF 1-1): 8 µg/mL (≈ 24.7 µM)

Question: With `COC(=O)NC[C@H]1CN(c2ccc3c(c2)COC(=O)N3C)C(=O)O1` [Example 3, (S)-methyl (3-(1-methyl-2-oxo-2,4-dihydro-1H-benzo[d][1,3]oxazin-6-yl)-2-oxooxazolidin-5-yl)methylcarbamate] as the compound, how does the MIC (S. aureus UC-76 SA-1) read?
Answer: Its MIC is 4 µg/mL (≈ 11.9 µM).

Question: What about the MIC (S. pneumoniae SV1 SP-3) of the same compound?
Answer: Its MIC is 4 µg/mL (≈ 11.9 µM).

Question: And the MIC (E. faecalis MGH-2 EF 1-1)?
Answer: Its MIC is 4 µg/mL (≈ 11.9 µM).

Question: For `CN1C(=O)OCCc2cc(N3C[C@H](C(N)=O)OC3=O)ccc21` [Example 18, (5R)-3-(1-methyl-2-oxo-1,2,4,5-tetrahydro-3,1-benzoxazepin-7-yl)-2-oxo-1,3-oxazolidine-5-carboxamide], which MIC (S. aureus UC-76 SA-1) is on record?
Answer: Its MIC is 16 µg/mL (≈ 52.4 µM).

Question: What about the MIC (S. pneumoniae SV1 SP-3) of the same compound?
Answer: Its MIC is 32 µg/mL (≈ 105 µM).

Question: What about the MIC (E. faecalis MGH-2 EF 1-1) of the same compound?
Answer: The MIC was 32 µg/mL (≈ 105 µM).

Question: What does the source list for `CN1C(=O)OCc2cc(N3C[C@H](Cn4ccnn4)OC3=O)ccc21` [Example 7, (R)-6-(5-((1H-1,2,3-triazol-1-yl)methyl)-2-oxooxazolidin-3-yl)-1-methyl-1H-benzo[d][1,3]oxazin-2(4H)-one]?
Answer: MIC (S. aureus UC-76 SA-1): 16 µg/mL (≈ 48.6 µM); MIC (S. pneumoniae SV1 SP-3): 16 µg/mL (≈ 48.6 µM); MIC (E. faecalis MGH-2 EF 1-1): 32 µg/mL (≈ 97.2 µM)

Question: `CCC(=O)NC[C@H]1CN(c2ccc3c(c2)COC(=O)N3C)C(=O)O1` [Example 2, (S)—N-((3-(1-methyl-2-oxo-2,4-dihydro-1H-benzo[d][1,3]oxazin-6-yl)-2-oxooxazolidin-5-yl)methyl)propionamide] was tested. Which MIC (S. aureus UC-76 SA-1) did it give?
Answer: Its MIC is 8 µg/mL (≈ 24 µM).

Question: What about the MIC (S. pneumoniae SV1 SP-3) of the same compound?
Answer: The MIC was 4 µg/mL (≈ 12 µM).

Question: And the MIC (E. faecalis MGH-2 EF 1-1)?
Answer: The MIC was 8 µg/mL (≈ 24 µM).

Question: Which MIC (S. aureus UC-76 SA-1) does the source give for `CC(=O)NC[C@H]1CN(c2cc(F)c3c(c2)CCOC(=O)N3C)C(=O)O1` [Example 15, N-{[(SS)-3-(9-fluoro-1-methyl-2-oxo-1,2,4,5-tetrahydro-3,1-benzoxazepin-7-yl)-2-oxo-1,3-oxazolidin-5-yl]methyl}acetamide] here?
Answer: The MIC was 8 µg/mL (≈ 22.8 µM).

Question: And the MIC (S. pneumoniae SV1 SP-3)?
Answer: Its MIC is 4 µg/mL (≈ 11.4 µM).

Question: And the MIC (E. faecalis MGH-2 EF 1-1)?
Answer: The MIC was 8 µg/mL (≈ 22.8 µM).
